Here are results for 2 substances from PMC8760323, “Single-chain tandem macrocyclic peptides as a scaffold for growth factor and cytokine mimetics” (Communications Biology, 2022).

Like-named read-outs stand apart in the source and are kept apart here.

The subject of one assay is BM-hMSCs. As to the kind of experiment: Proliferation assay, BM-hMSCs (WST-8). It is filed as cell-based, human. The note with it: 3 days, 1.3 nM rhHGF or 32 nM aMD4dY-PA22; for WST-8 absorbance, Normalized: normalized by mock. As for the experimental part: BM-hMSC cells at a density of 2500 cells/well were seeded on a 96-well cell culture plate with DMEM supplemented with 10% FBS with or without 1.3 nM rhHGF or 32 nM aMD4dY-PA22. After 3 days of culture in 5% CO2 at 37 °C, Cell Counting Reagent SF (Dojindo Laboratories, Japan) was added to the cells. After 1 h incubation, cell numbers were quantified by detection of absorbance at 450 nm using the Benchmark Plus plate reader (Bio-Rad Laboratories, Hercules, CA, USA).
In general terms: Tetrazolium assays rely on reduction of a dye to a coloured formazan, in cell work by metabolically active cells.

The next assay deals with HuCCT1 cells. As to the kind of experiment: Migration assay (Transwell). Particulars: 24 h, 1.3 nM rhHGF or 32 nM aMD4dY-PA22; for Relative migration: standardized by mock. Format: cell-based, human. Here is the method:
HuCCT1 cells at a density of 20,000 cells/well in RPMI 1640 medium supplemented with 0.5% FBS were added to 24-well Transwell inserts. In the lower layer, RPMI 1640 supplemented with 0.5% FBS with or without 1.3 nM rhHGF or 32 nM aMD4dY-PA22 was added. The cells were incubated for 24 h in 5% CO2 at 37 °C. The Transwell inserts were washed thrice with PBS, stained with 0.5% crystal violet (Nacalai Tesque)/methanol for 10 min, and washed with distilled water. Images of migrated cells were captured using BZ-X fluorescence microscopy (Keyence Corporation, Osaka, Japan), and cell migration levels were quantified by stained areas of the Transwell inserts.

A further assay deals with RTKs. As to the kind of experiment: Phospho-RTK array. It is filed as cell-based, human. Particulars: 1.3 nM rhHGF or 32 nM aMD4dY-PA22, 10 min. As for the experimental part:
Ligand specificity against RTKs was evaluated using the Proteome Profiler Human Phospho-RTK Array Kit (R&D Systems). Confluent HEK293 cells in a 10 cm cell culture dish were starved in DMEM supplemented with 0.5% FBS and penicillin-streptomycin for 24 h. The starved cells were stimulated by 1.3 nM rhHGF or 32 nM aMD4dY-PA22 for 10 min, rinsed once with PBS, and lysed with 1 mL of lysis buffer 17 (R&D Systems) supplemented with a protease inhibitor cocktail (Nacalai Tesque). Lysates were analyzed using the Proteome Profiler Human Phospho-RTK Array Kit (R&D Systems) according to the manufacturer’s instructions. Chemiluminescence was detected using the Molecular Imager ChemiDoc XRS System (Bio-Rad Laboratories).

Assay [1] concerns the target T1, recombinant human Met ectodomain-Fc (Homo sapiens, UniProt P08581).
T1 construct: recombinant human Met ectodomain-Fc; purchased R&D Systems
As to the kind of experiment: SPR analysis, human Met ectodomain. It is filed as binding. As for the experimental part: Binding constants of the STaMPtides and monomeric macrocyclic peptides to their corresponding receptor ectodomains were determined by SPR analysis using Biacore T200 (Cytiva). HBS-EP + buffer (Cytiva) containing 0.1% dimethyl sulfoxide (DMSO; Sigma-Aldrich, St. Louis, MO, USA) was used as the running buffer. As ligands, recombinant human Met ectodomain-Fc and human EPOR ectodomain-Fc were immobilized to around 1000 response units on CM5 sensor chips using a human antibody capture kit (Cytiva). STaMPtides and monomeric macrocyclic peptides were injected in five concentrations at a flow rate of 30 μL/min using a single-cycle kinetics method. Binding constants were quantified by analysis of the 1:1 binding model.
For orientation: In SPR one partner is held on a chip, and binding of the other changes the refractive index at the surface.

A further assay deals with Met. Put plainly: Cell-based phospho-Met ELISA (HuCCT1 cells). Also on record: species or system human. Particulars: phospho-Met ELISA and Erk signaling reporter assay. As for the experimental part:
The phosphorylation level of Met was evaluated according to a previously reported method[6],[32], with slight modifications. In brief, HuCCT-1 cells at a density of 10,000 cells/well were seeded on 96-well cell culture plates and incubated overnight in 5% CO2 at 37 °C. The cells were stimulated by rhHGF, purified HGF mimetic STaMPtides, and monomeric aMD4dY for 10 min in a 5% CO2 incubator at 37 °C. Next, cells were fixed using 4% paraformaldehyde in phosphate-buffered saline (PBS) for 20 min. Cells were washed three times with PBS and blocked with 1% BSA and 0.02% Triton X-100 in PBS for 30 min at room temperature. Cells were incubated with 1:1000 diluted phospho-Met (Tyr1234/1235) (D26) XP Rabbit mAb (Cell Signaling Technology) supplemented with 1% BSA in PBS at 4 °C overnight. After washing three times with PBS, the cells were incubated with 1:1000 diluted […] HRP-linked IgG antibody (Cell Signaling Technology) supplemented with 1% BSA in PBS at room temperature for 3 h. Cells were washed four times with PBS and incubated with 100 μL TMB substrate for 30 min. The reaction was stopped with an equal volume of 0.2 N sulfuric acid, and absorbance was quantified at 450 nm by the Molecular Imager ChemiDoc XRS System (Bio-Rad).
A general note: In an ELISA, binding on a coated surface is turned into a signal by an enzyme label.

T1 sequence (P08581 25-932 limits assumed): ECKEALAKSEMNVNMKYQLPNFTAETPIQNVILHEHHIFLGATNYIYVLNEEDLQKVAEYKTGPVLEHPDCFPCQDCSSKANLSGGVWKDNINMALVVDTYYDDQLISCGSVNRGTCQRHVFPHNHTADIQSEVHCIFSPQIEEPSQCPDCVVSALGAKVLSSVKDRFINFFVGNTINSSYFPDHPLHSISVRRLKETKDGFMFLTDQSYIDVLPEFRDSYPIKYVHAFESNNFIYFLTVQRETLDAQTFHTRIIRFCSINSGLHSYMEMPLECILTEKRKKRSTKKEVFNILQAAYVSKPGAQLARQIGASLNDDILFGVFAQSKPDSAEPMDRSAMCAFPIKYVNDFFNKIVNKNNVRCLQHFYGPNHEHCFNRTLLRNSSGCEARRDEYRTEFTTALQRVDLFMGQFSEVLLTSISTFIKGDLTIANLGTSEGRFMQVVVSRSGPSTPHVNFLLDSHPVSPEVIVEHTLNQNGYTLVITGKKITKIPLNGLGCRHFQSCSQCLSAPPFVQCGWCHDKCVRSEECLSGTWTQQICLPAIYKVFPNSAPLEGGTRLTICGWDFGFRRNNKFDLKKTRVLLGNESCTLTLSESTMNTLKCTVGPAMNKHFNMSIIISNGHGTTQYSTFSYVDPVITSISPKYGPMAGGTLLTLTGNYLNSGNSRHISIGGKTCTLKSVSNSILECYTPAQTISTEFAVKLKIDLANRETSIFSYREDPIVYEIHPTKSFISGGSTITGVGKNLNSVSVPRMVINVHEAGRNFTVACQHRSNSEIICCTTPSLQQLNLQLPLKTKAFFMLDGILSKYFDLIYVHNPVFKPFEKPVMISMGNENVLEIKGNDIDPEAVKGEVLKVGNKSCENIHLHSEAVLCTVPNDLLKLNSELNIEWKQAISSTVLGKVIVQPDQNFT

Consider “rhHGF: recombinant human HGF (R&D Systems)”, for which the “growth of BM-hMSCs” value with BM-hMSCs was “slightly promoted proliferation”. Further, the “WST-8 absorbance, Normalized” value is 1.1816 in the assay on BM-hMSCs (N 1), 1.335 in the assay on BM-hMSCs (N 2) and 1.247 in the assay on BM-hMSCs (N 3). For the same substance, the migration result in the assay with HuCCT1 cells is listed as “promoted migration of HuCCT1 cells”. In addition, the Stained area came to 1050763 μm^2 in the assay with HuCCT1 cells (n1) and 1394072 μm^2 in the assay with HuCCT1 cells (n2). In addition, the values for the Stained/Total in the assay with HuCCT1 cells (n1) and with HuCCT1 cells (n2) were 0.03941 and 0.04835, respectively. For the same substance, the figures for the Relative migration with HuCCT1 cells (n1) and in the assay with HuCCT1 cells (n2) were 2.3393 and 2.87, respectively. Also, in the assay with RTKs, the “selectivity against RTKs” value is reported as “highly Met-selective”.
By Kd is commonly meant the equilibrium constant for the complex coming apart. With “AET - CRQFNRRTHEVWNLDCG - AAPAAPA PAAPAAPA PAAPAA PG - CRQFNRRTHEVWNLDC (bicyclic or more) [aMD4dY-PA22, HGF mimetic STaMPtide, two aMD4dY macrocycles with a 22-amino-acid PA linker, secreted by C. glutamicum]”, the Kd turned out to be 1 nM in assay [1] (Biacore T200, single-cycle kinetics, 1:1 binding model, N = 3, read-out: dissociation constant (KD)); 1.3 nM in assay [1] (Table S1, N 1, read-out: KD); 0.9 nM in assay [1] (Table S1, N 2, read-out: KD); 0.85 nM in assay [1] (Table S1, N 3, read-out: KD). Besides, the kd was 0.00046 M⁻¹ s⁻¹ in assay [1] (Table S1, Average of N 1-3); 0.0006 M⁻¹ s⁻¹ in assay [1] (Table S1, N 1); 0.00038 M⁻¹ s⁻¹ in assay [1] (Table S1, N 2); 0.00039 M⁻¹ s⁻¹ in assay [1] (Table S1, N 3). For the same substance, in the assay on BM-hMSCs, the “growth of BM-hMSCs” value was “slightly promoted proliferation”. Also, the “WST-8 absorbance, Normalized” value is 1.155 with BM-hMSCs (N 1), 1.175 in the assay with BM-hMSCs (N 2) and 1.237 in the assay with BM-hMSCs (N 3). The migration entry in the assay on HuCCT1 cells is given as “promoted migration of HuCCT1 cells”. The Stained area in the assay with HuCCT1 cells (n1) is 1905662 μm^2; in the assay on HuCCT1 cells (n2) it was 1256153 μm^2. For the same substance, the values for the Stained/Total with HuCCT1 cells (n1) and with HuCCT1 cells (n2) were 0.07439 and 0.04693, respectively. Besides, the values for the Relative migration with HuCCT1 cells (n1) and with HuCCT1 cells (n2) were 4.415 and 2.785, respectively. Moreover, the “selectivity against RTKs” value in the assay on RTKs is listed as “highly Met-selective”. Moreover, in the assay on Met, the “Met phosphorylation and Erk-SRE signaling activation” value is recorded as “at a comparable level with rhHGF”.
